Assay [1] has as its system tyrosine kinase (HT 29 cells). The assay can be described thus: Assay of the tyrosine kinase activity, HT 29 cells. Type of assay: cell-based, human. On the procedure:
The tyrosine kinase activity was also determined according to the method of Keri et al. [Tumor Biology 9, 315 (1988)]. The activity of the analogues was characterized on the basis of their inhibitory effect in comparison to the incorporation of ^32 p isotope to untreated cells used as control (Table IV).

Assay [2] deals with HT 29: tumour cell line of human colon origin. The assay can be described thus: Assay of the inhibition of cell division, HT 29. Type of assay: cell-based. On the procedure:
(§1) The incorporation of [^3 H]-thymidine to tumour cells of various origin and measurement of the cell count were carried out according to the method of Keri et al. [Tumor Biology 9, 315 (1988)]. The biological activity of the analogues was expressed as the percentage of inhibition of the labelled thymidine incorporation or increase in the count of untreated cells used as control (Table III).

In assay [3] the test system is rat hypophysis (GH release). The assay can be described thus: Assay of the growth hormone (GH): GHRH-elicited GH release, superfusion method. Type of assay: cell-based. Conditions: percentage of decrease (-) or increase (+) in GH amount released by GHRH. On the procedure: The release or inhibition, respectively, of the release of GH were measured on rat hypophysis by using the superfusion method [Vigh et al.: Peptides 5, 241 (1984)]. As control, the GH amount was considered which was released by the GH releasing hormone (GHRH) given in the same dose as the sample. The activity of the somatostatin analogue was expressed as the percentage of decrease or increase, respectively, in the GH amount released by GHRH (Table II).

The test system of assay [4] is MCF 7: tumour cell line of human breast origin. The assay can be described thus: Assay of the inhibition of cell division, MCF 7. The format is cell-based. On the procedure: as §1

As to “Ac-Sar-Ala-Tyr-Tyr-Aa-Lys-Val-Phe-Trp-NH2 [Example 7]”, the “Inhibition (%) of tyrosine kinase activity” value in assay [1] (HT 29, dose 10 μg) is given as 17%; in assay [1] (HT 29, dose 30 μg), 23%. Besides, the “Inhibition (%) of cell division” value in assay [2] (HT 29, dose 10 μg) was found to be 28%; in assay [4] (MCF 7, dose 20 μg), 24%. Also, the “Change of GH release” value in assay [3] is reported as -20%.

With “D-Phe-Cys-Tyr-D-Trp-Lys-Val-Cys-Thr-NH2 [Example 2]”, the “Inhibition (%) of tyrosine kinase activity” value in assay [1] (HT 29, dose 1 μg, 32P incorporation vs untreated cells) was found to be 35%; in assay [1] (HT 29, dose 10 μg), 22%. Besides, the “Inhibition (%) of cell division” value was determined as 27% in assay [2] (HT 29, dose 20 μg) and 45% in assay [4] (MCF 7, dose 20 μg). Besides, the “Change of GH release” value in assay [3] is given as -93%.

On to “D-Phe-Tyr-Tyr-Aa-Lys-Val-Phe-Trp-NH2 [Example 6]”, for which the “Change of GH release” value in assay [3] is given as “+26%”. In addition, in assay [4] (MCF 7, dose 40 μg), the “Inhibition (%) of cell division” value is reported as 48%.

Values taken from US5480870A, “Tumor growth-inhibiting somatostatin analogues, pharmaceutical compositions containing them and process for preparing same” (Biosignal Kutato-Fejlesztokft, priority 1991, dated 1996).
